Test: xn = mol fraction of the nth substance listed
Conditions: 100 kPa

O=C1CCCO1 + CCCC[N+]1(C)CCCC1.O=S(=O)([N-]S(=O)(=O)C(F)(F)F)C(F)(F)F
x1 = 1
Conditions	electrical conductivity [S/m]	viscosity [mPa·s]
298.15 K	0.001	1.73
303.15 K	0.001	1.63
308.15 K	0.001	1.52
313.15 K	0.001	1.42
318.15 K	0.001	1.35
323.15 K	0.002	1.3

O=C1CCCCO1 + CCCC[n+]1ccn(C)c1.O=S(=O)([N-]S(=O)(=O)C(F)(F)F)C(F)(F)F
electrical conductivity [S/m]
Conditions	293.15 K	298.15 K	303.15 K	308.15 K	313.15 K	318.15 K	323.15 K
x2 = 0.0532	0.167	0.18	0.195	–	0.225	0.244	–
x2 = 0.1004	0.395	–	–	–	0.553	0.595	0.636
x2 = 0.1504	–	0.658	–	0.779	0.848	0.924	–
x2 = 0.1999	0.655	0.725	0.797	0.87	0.952	–	–
x2 = 0.2988	0.67	0.744	0.822	–	0.984	1.07	1.16
x2 = 0.4006	–	–	0.741	0.818	0.905	0.99	1.08
x2 = 0.5005	0.522	–	0.669	0.749	0.827	0.92	1.01
x2 = 0.5999	0.411	–	0.559	0.637	0.72	0.815	0.928
x2 = 0.7214	0.385	0.453	0.532	–	0.697	0.789	–
x2 = 0.8475	–	0.418	0.495	0.575	0.658	0.754	0.858
x2 = 0.9003	0.34	0.412	0.484	0.563	0.646	0.745	0.846

Source: a compilation of properties of binary mixtures (doi:10.2298/jsc190413047v)
